Assay results reported in patent publication US20190127366A1 (LifeSci Pharmaceuticals, Inc., priority 2015, published 2019).

target: T1, human complement factor D (Homo sapiens, UniProt P00746); assay: In vitro enzyme inhibition (Z-Lys-SBzl/DTNB absorbance assay); assay type: biochemical; conditions: not given
T1 construct: purchased R&D Systems 1824-SE
Procedure: The ability of the compounds disclosed herein to inhibit human complement factor D inhibitory activity was quantified according to the 12-step protocol provided below. • 1. Prepare assay buffer: 50 mM Tris/HCl, pH 7.5, 1 M NaCl. • 2. Dilute 10 mM Complement Factor D inhibitor Nafamostat Mesilate (Selleckchem, Catalog #S1386) solution from 10000 μM to 9.77 μM in 100% DMSO, 8 concentrations. Then dilute the serial concentrations of Nafamostat Mesilate 20-fold in assay buffer. • 3. Add 10 μl diluted Nafamostat Mesilate duplicated into each of the inhibitor control well of a 96-well plate (Corning, Catalog #3599). Final concentrations were 50 μM, 25 μM, 12.5 μM, 6.25 μM, 3.125 μM, 0.781 μM, 0.195 μM and 0.049 μM. 0.5% DMSO was in each well finally. • 4. Dilute 20 mM test compounds from 10000 μM to […] in 100% DMSO, 6-fold dilution, 8 concentrations. Then dilute the serial concentrations of test compounds 20-fold in assay buffer. • 5. Add 10 μl diluted test compounds duplicated into the 96-well plate. Final concentrations were 50 μM, 8.33 μM, 1.39 μM, 0.23 μM, 0.0386 μM, 0.0064 μM, 0.0011 μM and 0.0002 μM. 0.5% DMSO was in each well finally. • 6. Dilute 20 mM substrate Z-Lys-SBzl (Bachem, Cat #M-1300) to 200 μM in assay buffer with 200 μM DTNB(Sigma, Catalog #D8130). • 7. Dilute 738 ng/μL Complement Factor D (R&D Systems, Catalog #1824-SE) to 6.25 ng/μL in assay buffer. Add 40 μl diluted Complement Factor D in the 96-well plate. • 8. Positive control well contains Complement Factor D without test compound. Negative control well contains neither Complement Factor D nor test compound. Using assay buffer, bring the total volume of all controls to 50 μl. • 9. Pre-incubate the plate for 5 min at room temperature. • 10. Add 50 μl of diluted substrate/DTNB mixture into each well. Mix the reagents completely by shaking the plate gently for 30 sec. • 11. For kinetic reading: Immediately start measuring absorbance (A405 nm) continuously and record data every 30sec for 60 min. • 12. Data analysis • Inhibition activity of compound was evaluated by IC50. IC50 was calculated according the dose-response curve of compound fitted using GraphPadPrism with “log(inhibitor)-response (variable slope)” equation. • % inhibition was calculated by using following equation:
[formula] • Mean(NC): The average value of the negative control wells' A405 nm values. • Mean(PC): The average value of the positive control wells' A405 nm values.
The ability of the compounds in Table 2 to inhibit human complement factor D inhibitory activity was determined.

T1 sequence (P00746 26-253): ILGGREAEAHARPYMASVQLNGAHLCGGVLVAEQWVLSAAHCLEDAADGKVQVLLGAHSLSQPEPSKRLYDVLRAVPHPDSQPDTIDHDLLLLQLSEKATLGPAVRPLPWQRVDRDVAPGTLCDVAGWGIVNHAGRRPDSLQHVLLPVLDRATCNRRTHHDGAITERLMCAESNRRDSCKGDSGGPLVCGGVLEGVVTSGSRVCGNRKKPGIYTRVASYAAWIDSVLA

SMILES | IC50 [µM]
CC(=O)N1CCN(C(=O)Cn2nc(C(N)=O)c3ccccc32)[C@H](C(=O)Nc2cccc(C(F)(F)F)n2)C1 [Example 30, (S)-1-(2-(4-acetyl-2-((6-(trifluoromethyl)pyridin-2-yl)carbamoyl)piperazin-1-yl)-2-oxoethyl)-1H-indazole-3-carboxamide] | 1 to 10

same assay, conditions: Complement Factor D (R&D Systems), substrate Z-Lys-SBzl, A405 nm; read-out: CFD IC50

SMILES | IC50 [µM]
CC(C)(C)OC(=O)N1CCN(C(=O)Cn2nc(C(N)=O)c3ccccc32)[C@H](C(=O)Nc2cccc(Cl)n2)C1 [Example 25, (S)-tert-butyl 4-(2-(3-carbamoyl-1H-indazol-1-yl)acetyl)-3-((6-chloropyridin-2-yl)carbamoyl)piperazine-1-carboxylate] | 1 to 10
NC(=O)c1nn(CC(=O)N2CCNC[C@H]2C(=O)Nc2cccc(Cl)n2)c2ccccc12 [Example 26, (S)-1-(2-(2-((6-chloropyridin-2-yl)carbamoyl)piperazin-1-yl)-2-oxoethyl)-1H-indazole-3-carboxamide] | > 10
CC(=O)N1CCN(C(=O)Cn2nc(C(N)=O)c3ccccc32)[C@H](C(=O)Nc2cccc(Cl)n2)C1 [Example 27, (S)-1-(2-(4-acetyl-2-((6-chloropyridin-2-yl)carbamoyl)piperazin-1-yl)-2-oxoethyl)-1H-indazole-3-carboxamide] | 1 to 10
CN1CCN(C(=O)Cn2nc(C(N)=O)c3ccccc32)[C@H](C(=O)Nc2cccc(Cl)n2)C1 [Example 28, (S)-1-(2-(2-((6-chloropyridin-2-yl)carbamoyl)-4-methylpiperazin-1-yl)-2-oxoethyl)-1H-indazole-3-carboxamide] | 1 to 10
NC(=O)c1nn(CC(=O)N2CCNC[C@H]2C(=O)Nc2cccc(C(F)(F)F)n2)c2ccccc12 [Example 29, (S)-1-(2-oxo-2-(2-((6-(trifluoromethyl)pyridin-2-yl)carbamoyl)piperazin-1-yl)ethyl)-1H-indazole-3-carboxamide] | > 10
NC(=O)c1nn(CC(=O)N2CCCCC[C@H]2C(=O)NCc2cccc(Cl)c2F)c2ccccc12 [Example 31, (S)-1-(2-(2-((3-chloro-2-fluorobenzyl)carbamoyl)azepan-1-yl)-2-oxoethyl)-1H-indazole-3-carboxamide] | 0.1 to 1
NC(=O)c1nn(CC(=O)N2CCCCC[C@H]2C(=O)Nc2cccc(Cl)c2F)c2ccccc12 [Example 32, (S)-1-(2-(2-((3-chloro-2-fluorophenyl)carbamoyl)azepan-1-yl)-2-oxoethyl)-1H-indazole-3-carboxamide] | 1 to 10
NC(=O)c1nn(CC(=O)N2CCCNCC2C(=O)NCc2cccc(Cl)c2F)c2ccccc12 (stereo not drawn) [Example 33, 1-(2-(2-((3-chloro-2-fluorobenzyl)carbamoyl)-1,4-diazepan-1-yl)-2-oxoethyl)-1H-indazole-3-carboxamide] | > 10
CC(=O)N1CCCN(C(=O)Cn2nc(C(N)=O)c3ccccc32)C(C(=O)NCc2cccc(Cl)c2F)C1 (stereo not drawn) [Example 34, 1-(2-(4-acetyl-2-((3-chloro-2-fluorobenzyl)carbamoyl)-1,4-diazepan-1-yl)-2-oxoethyl)-1H-indazole-3-carboxamide] | > 10
NC(=O)c1nn(CC(=O)N2CCNCCC2C(=O)NCc2cccc(Cl)c2F)c2ccccc12 (stereo not drawn) [Example 35, 1-(2-(7-((3-chloro-2-fluorobenzyl)carbamoyl)-1,4-diazepan-1-yl)-2-oxoethyl)-1H-indazole-3-carboxamide 2,2,2-trifluoroacetate] | 1 to 10
NC(=O)c1nn(CC(=O)N2[C@@H]3CC[C@@H](C3)[C@H]2C(=O)Nc2cccc(Cl)c2F)c2cnccc12 [Example 36, 1-(2-((1R,3S,4S)-3-((3-chloro-2-fluorophenyl)carbamoyl)-2-azabicyclo[2.2.1]heptan-2-yl)-2-oxoethyl)-1H-pyrazolo[3,4-c]pyridine-3-carboxamide] | 1 to 10
NC(=O)c1nn(CC(=O)N2[C@@H]3CC[C@@H](C3)[C@H]2C(=O)NCc2cccc(Cl)c2F)c2cnccc12 [Example 39, 1-(2-((1R,3S,4S)-3-((3-chloro-2-fluorobenzyl)carbamoyl)-2-azabicyclo[2.2.1]heptan-2-yl)-2-oxoethyl)-1H-pyrazolo[3,4-c]pyridine-3-carboxamide] | 0.1 to 1
NC(=O)c1nn(CC(=O)N2[C@@H]3CC[C@@H](C3)[C@H]2C(=O)Nc2cccc(OC(F)(F)F)c2F)c2ccccc12 [Example 41, 1-(2-((1R,3S,4S)-3-((2-fluoro-3-(trifluoromethoxy)phenyl)carbamoyl)-2-azabicyclo[2.2.1]heptan-2-yl)-2-oxoethyl)-1H-indazole-3-carboxamide] | 1 to 10
NC(=O)c1nn(CC(=O)N2[C@@H]3CC[C@@H](C3)[C@H]2C(=O)Nc2cccc(OC(F)(F)F)c2F)c2cnccc12 [Example 42, 1-(2-((1R,3S,4S)-3-((2-fluoro-3-(trifluoromethoxy)phenyl)carbamoyl)-2-azabicyclo[2.2.1]heptan-2-yl)-2-oxoethyl)-1H-pyrazolo[3,4-c]pyridine-3-carboxamide] | 1 to 10
NC(=O)c1nn(CC(=O)N2[C@@H]3CC[C@@H](C3)[C@H]2C(=O)Nc2cccc(-c3ccccc3Cl)n2)c2ccccc12 [Example 44, 1-(2-((1R,3S,4S)-3-((6-(2-chlorophenyl)pyridin-2-yl)carbamoyl)-2-azabicyclo[2.2.1]heptan-2-yl)-2-oxoethyl)-1H-indazole-3-carboxamide] | 0.1 to 1
NC(=O)c1nn(CC(=O)N2[C@@H]3CC[C@@H](C3)[C@H]2C(=O)Nc2cnc3ccccc3n2)c2ccccc12 [Example 45, 1-(2-oxo-2-((1R,3S,4S)-3-(quinoxalin-2-ylcarbamoyl)-2-azabicyclo[2.2.1]heptan-2-yl)ethyl)-1H-indazole-3-carboxamide] | 1 to 10
NC(=O)c1nn(CC(=O)N2[C@@H]3CC[C@@H](C3)[C@H]2C(=O)Nc2cccc(-c3ccccc3F)n2)c2ccccc12 [Example 46, 1-(2-((1R,3S,4S)-3-((6-(2-fluorophenyl)pyridin-2-yl)carbamoyl)-2-azabicyclo[2.2.1]heptan-2-yl)-2-oxoethyl)-1H-indazole-3-carboxamide] | > 10
NC(=O)c1nn(CC(=O)N2[C@@H]3CC[C@@H](C3)[C@H]2C(=O)NCc2ccc3[nH]cc(Cl)c3c2F)c2ccccc12 [Example 47, 1-(2-((1R,3S,4S)-3-(((3-chloro-4-fluoro-1H-indol-5-yl)methyl)carbamoyl)-2-azabicyclo[2.2.1]heptan-2-yl)-2-oxoethyl)-1H-indazole-3-carboxamide] | > 10
NC(=O)c1nn(CC(=O)N2[C@@H]3CC[C@@H](C3)[C@H]2C(=O)NCc2cnc3[nH]cc(Cl)c3c2)c2ccccc12 [Example 48, 1-(2-((1R,3S,4S)-3-(((3-chloro-1H-pyrrolo[2,3-b]pyridin-5-yl)methyl)carbamoyl)-2-azabicyclo[2.2.1]heptan-2-yl)-2-oxoethyl)-1H-indazole-3-carboxamide] | > 10
N#Cc1cccc(NC(=O)[C@@H]2[C@H]3CC[C@H](C3)N2C(=O)Cn2nc(C(N)=O)c3ccccc32)n1 [Example 49, 1-(2-((1R,3S,4S)-3-((6-cyanopyridin-2-yl)carbamoyl)-2-azabicyclo[2.2.1]heptan-2-yl)-2-oxoethyl)-1H-indazole-3-carboxamide] | 1 to 10
COc1cccc(NC(=O)[C@@H]2[C@H]3CC[C@H](C3)N2C(=O)Cn2nc(C(N)=O)c3ccccc32)n1 [Example 50, 1-(2-((1R,3S,4S)-3-((6-methoxypyridin-2-yl)carbamoyl)-2-azabicyclo[2.2.1]heptan-2-yl)-2-oxoethyl)-1H-indazole-3-carboxamide] | 1 to 10
NC(=O)c1nn(CC(=O)N2[C@@H]3CC[C@@H](C3)[C@H]2C(=O)Nc2cc(Cl)ccn2)c2ccccc12 [Example 51, 1-(2-((1R,3S,4S)-3-((4-chloropyridin-2-yl)carbamoyl)-2-azabicyclo[2.2.1]heptan-2-yl)-2-oxoethyl)-1H-indazole-3-carboxamide] | 1 to 10
NC(=O)c1nn(CC(=O)N2[C@@H]3CC[C@@H](C3)[C@H]2C(=O)NCc2cccc(Cl)n2)c2ccccc12 [Example 52, 1-(2-((1R,3S,4S)-3-(((6-chloropyridin-2-yl)methyl)carbamoyl)-2-azabicyclo[2.2.1]heptan-2-yl)-2-oxoethyl)-1H-indazole-3-carboxamide] | > 10
